Measurements as given in patent US20240018133A1, “MODULATORS OF THE INTEGRATED STRESS PATHWAY” (Calico Life Sciences LLC, priority 2019, published 2024).

Each compound was assayed on ATF4 luciferase reporter (human full-length ATF4 5'-UTR fused to firefly luciferase) in HEK293T cells (assay: ATF4-Luc assay (in vitro model of VWMD): HEK293T cells carrying ATF4 luciferase reporter, tunicamycin-treated). Details: Homo sapiens, HEK-293T, 1 μg/mL tunicamycin, 7 hours, One Glo luminescence.
Format: cell-based
Procedure, shortened: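 Reporter cells were stably generated by retroviral transduction and puromycin selection, then seeded at 30,000 cells/well. Next day, cells received 1 μg/mL tunicamycin with 200 nM test compound for 7 h, and luciferase luminescence was read with a one-step reagent. Values reported as EC50.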

O=C(COc1cc(F)c2cn[nH]c2c1)NC12CCC(NC(=O)[C@H]3C[C@@H](O)c4cc(Cl)ccc4O3)(CC1)[C@@H](O)C2 [Compound 355, (2R,4R)-6-chloro-N-[(2S)-4-{2-[(4-fluoro-1H-indazol-6-yl)oxy]acetamido}-2-hydroxybicyclo[2.2.2]octan-1-yl]-4-hydroxy-3,4-dihydro-2H-1-benzopyran-2-carboxamide] and O=C(COc1cc(F)c2cn[nH]c2c1)NC12CC(NC(=O)[C@H]3C[C@@H](O)c4cc(Cl)ccc4O3)(C1)C2 [Compound 351, (2R,4R)-6-chloro-N-(3-{2-[(4-fluoro-1H-indazol-6-yl)oxy]acetamido}bicyclo[1.1.1]pentan-1-yl)-4-hydroxy-3,4-dihydro-2H-1-benzopyran-2-carboxamide] cannot be ordered by EC50: under 10 nM for the first, under 10 nM for the second.

First: O=C(COc1ccc(Cl)c(F)c1)NC12CC(NC(=O)[C@H]3C[C@@H](O)c4ccccc4O3)(C1)C2 [Compound 267, (2R,4R)—N-{3-[2-(4-chloro-3-fluorophenoxy)acetamido]bicyclo[1.1.1]pentan-1-yl}-4-hydroxy-3,4-dihydro-2H-1-benzopyran-2-carboxamide]
Second: Cc1ccc2c(c1)C(O)CC(C(=O)NC13CC(NC(=O)COc4ccc(Cl)c(F)c4)(C1)C3)O2 (stereo not drawn) [Compound 254, N-{3-[2-(4-chloro-3-fluorophenoxy)acetamido]bicyclo[1.1.1]pentan-1-yl}-4-hydroxy-6-methyl-3,4-dihydro-2H-1-benzopyran-2-carboxamide]
The EC50 of the first is higher: 10 to 50 nM for the first, under 10 nM for the second. The second is the more potent here.

First: O=C(COc1ccc(Cl)c(F)c1)NC12CC(NC(=O)c3cc(=O)c4ccc(C(F)(F)F)cc4o3)(C1)C2 [Compound 230, N-{3-[2-(4-chloro-3-fluorophenoxy)acetamido]bicyclo[1.1.1]pentan-1-yl}-4-oxo-7-(trifluoromethyl)-4H-1-benzopyran-2-carboxamide]
Second: O=C(COc1ccc(Cl)c(F)c1)NC12CC(NC(=O)c3cc(=O)c4ccc(F)cc4o3)(C1)C2 [Compound 313, N-{3-[2-(4-chloro-3-fluorophenoxy)acetamido]bicyclo[1.1.1]pentan-1-yl}-7-fluoro-4-oxo-4H-1-benzopyran-2-carboxamide]
The EC50 of the first is lower: under 10 nM for the first, 10 to 50 nM for the second.

O=C(COc1ccc(Cl)c(F)c1)NC12CC(NC(=O)[C@@H]3CC(=O)c4cc(Cl)ccc4O3)(C1)C2 [Compound 224, (2S)-6-chloro-N-{3-[2-(4-chloro-3-fluorophenoxy)acetamido]bicyclo[1.1.1]pentan-1-yl}-4-oxo-3,4-dihydro-2H-1-benzopyran-2-carboxamide] and O=C(COc1ccc(Cl)c(F)c1)NC12CC(NC(=O)C3CC(=O)c4cc(Cl)ccc4O3)(C1)C2 (stereo not drawn) [Compound 186, 6-chloro-N-{3-[2-(4-chloro-3-fluorophenoxy)acetamido]bicyclo[1.1.1]pentan-1-yl}-4-oxo-3,4-dihydro-2H-1-benzopyran-2-carboxamide] cannot be ordered by EC50: under 10 nM for the first, under 10 nM for the second.

First: O=C(COc1ccc(F)c(F)c1)NC12CC(NC(=O)[C@@H]3CC(=O)c4cc(F)c(F)cc4O3)(C1)C2 [Compound 321, (2S)—N-{3-[2-(3,4-difluorophenoxy)acetamido]bicyclo[1.1.1]pentan-1-yl}-6,7-difluoro-4-oxo-3,4-dihydro-2H-1-benzopyran-2-carboxamide]
Second: O=C(COc1ccc(Cl)c(F)c1)NC12CCC(NC(=O)C3CC(=O)c4cc(Cl)ccc4O3)(C1)C2 (stereo not drawn) [Compound 310, 6-chloro-N-{4-[2-(4-chloro-3-fluorophenoxy)acetamido]bicyclo[2.1.1]hexan-1-yl}-4-oxo-3,4-dihydro-2H-1-benzopyran-2-carboxamide]
The EC50 of the first is higher: 50 to 250 nM for the first, 10 to 50 nM for the second. The second is the more potent here.

First: COC(=O)CN1C[C@@H](C(=O)NC23CC(NC(=O)COc4ccc(Cl)c(F)c4)(C2)C3)Oc2ccc(Cl)cc21 [Compound 211, methyl [(2S)-6-chloro-2-({3-[2-(4-chloro-3-fluorophenoxy)acetamido]bicyclo[1.1.1]pentan-1-yl}carbamoyl)-2,3-dihydro-4H-1,4-benzoxazin-4-yl]acetate]
Second: CC(C)(O)CN1C[C@@H](C(=O)NC23CC(NC(=O)COc4ccc(Cl)c(F)c4)(C2)C3)Oc2ccc(Cl)cc21 [Compound 348, (2S)-6-chloro-N-{3-[2-(4-chloro-3-fluorophenoxy)acetamido]bicyclo[1.1.1]pentan-1-yl}-4-(2-hydroxy-2-methylpropyl)-3,4-dihydro-2H-1,4-benzoxazine-2-carboxamide]
The EC50 of the first is lower: 10 to 50 nM for the first, 50 to 250 nM for the second. The first is the more potent here.

First: O=C(COc1ccc(Cl)c(F)c1)NC12CC(NC(=O)[C@H]3C[C@@H](O)c4cc(Cl)c(F)cc4O3)(C1)C2 (racemic) [Compound 234, rac-(2R,4R)-6-chloro-N-{3-[2-(4-chloro-3-fluorophenoxy)acetamido]bicyclo[1.1.1]pentan-1-yl}-7-fluoro-4-hydroxy-3,4-dihydro-2H-1-benzopyran-2-carboxamide]
Second: COc1ccc2c(n1)[C@H](O)C[C@H](C(=O)NC13CC(NC(=O)COc4ccc(Cl)c(F)c4)(C1)C3)O2 (racemic) [Compound 334, rac-(2R,4R)—N-{3-[2-(4-chloro-3-fluorophenoxy)acetamido]bicyclo[1.1.1]pentan-1-yl}-4-hydroxy-6-methoxy-3,4-dihydro-2H-pyrano[3,2-b]pyridine-2-carboxamide]
The EC50 of the first is lower: under 10 nM for the first, 50 to 250 nM for the second. The first is the more potent here.

First: O=C(COc1ccc(Cl)c(F)c1)N[C@@H]1C[C@@H]2C[C@H]1C[C@H]2NC(=O)[C@H]1C[C@@H](O)c2cc(Cl)ccc2O1 (racemic) [Compound 371, (2R,4R)-6-chloro-N-{(1RS,2SR,4RS,5SR)-5-[2-(4-chloro-3-fluorophenoxy)acetamido]bicyclo[2.2.1]heptan-2-yl}-4-hydroxy-3,4-dihydro-2H-1-benzopyran-2-carboxamide]
Second: O=C(COc1ccc(Cl)c(F)c1)NC12CC(NC(=O)C3CC(NC4(CO)CC4)c4cc(Cl)ccc4O3)(C1)C2 (stereo not drawn) [Compound 339, 6-chloro-N-{3-[2-(4-chloro-3-fluorophenoxy)acetamido]bicyclo[1.1.1]pentan-1-yl}-4-{[1-(hydroxymethyl)cyclopropyl]amino}-3,4-dihydro-2H-1-benzopyran-2-carboxamide]
The EC50 of the first is lower: under 10 nM for the first, 10 to 50 nM for the second. The first is the more potent here.

O=C(NC12CC(NC(=O)[C@H]3C[C@@H](O)c4cc(Cl)ccc4O3)(C1)C2)c1cnc(C2CC2)o1 [Compound 383, N-(3-{[(2R,4R)-6-chloro-4-hydroxy-3,4-dihydro-2H-1-benzopyran-2-carbonyl]amino}bicyclo[1.1.1]pentan-1-yl)-2-cyclopropyl-1,3-oxazole-5-carboxamide] and CCc1ncc(C(=O)NC23CCC(NC(=O)[C@H]4C[C@@H](O)c5cc(Cl)ccc5O4)(CC2)C[C@@H]3O)o1 [Compound 274, N-[(2S)-4-{[(2R,4R)-6-chloro-4-hydroxy-3,4-dihydro-2H-1-benzopyran-2-carbonyl]amino}-2-hydroxybicyclo[2.2.2]octan-1-yl]-2-ethyl-1,3-oxazole-5-carboxamide] fall in the same range of EC50: 50 to 250 nM for the first, 50 to 250 nM for the second.

CC(C)c1ccc2oc(C(=O)NC34CC(NC(=O)COc5ccc(Cl)c(F)c5)(C3)C4)cc(=O)c2c1 [Compound 290, N-{3-[2-(4-chloro-3-fluorophenoxy)acetamido]bicyclo[1.1.1]pentan-1-yl}-4-oxo-6-(propan-2-yl)-4H-1-benzopyran-2-carboxamide] and Cc1ccc2c(=O)cc(C(=O)NC34CC(NC(=O)COc5ccc(Cl)c(F)c5)(C3)C4)oc2c1 [Compound 284, N-{3-[2-(4-chloro-3-fluorophenoxy)acetamido]bicyclo[1.1.1]pentan-1-yl}-7-methyl-4-oxo-4H-1-benzopyran-2-carboxamide] fall in the same range of EC50: 10 to 50 nM for the first, 10 to 50 nM for the second.

O=C(COc1ccc(Cl)c(F)c1)NC12CC(NC(=O)c3cc(=O)c4ccc(OC(F)F)cc4o3)(C1)C2 [Compound 286, N-{3-[2-(4-chloro-3-fluorophenoxy)acetamido]bicyclo[1.1.1]pentan-1-yl}-7-(difluoromethoxy)-4-oxo-4H-1-benzopyran-2-carboxamide] and O=C(COc1ccc(Cl)c(F)c1)NC12CC(NC(=O)C3Cc4cc(Cl)ccc4N3)(C1)C2 (stereo not drawn) [Compound 261, 5-chloro-N-{3-[2-(4-chloro-3-fluorophenoxy)acetamido]bicyclo[1.1.1]pentan-1-yl}-2,3-dihydro-1H-indole-2-carboxamide] fall in the same range of EC50: 50 to 250 nM for the first, 50 to 250 nM for the second.

First: O=C(NC12CCC(NC(=O)[C@H]3C[C@@H](O)c4cc(Cl)ccc4O3)(C1)C2)c1ccc(C(F)(F)F)cc1 [Compound 374, (2R,4R)-6-chloro-4-hydroxy-N-{4-[4-(trifluoromethyl)benzamido]bicyclo[2.1.1]hexan-1-yl}-3,4-dihydro-2H-1-benzopyran-2-carboxamide]
Second: O=C(NC12CCC(NC(=O)C3CC(=O)c4cc(Cl)ccc4O3)(C1)C2)c1ccc(OC(F)(F)F)cn1 (stereo not drawn) [Compound 311, N-{4-[(6-chloro-4-oxo-3,4-dihydro-2H-1-benzopyran-2-carbonyl)amino]bicyclo[2.1.1]hexan-1-yl}-5-(trifluoromethoxy)pyridine-2-carboxamide]
The EC50 of the first is higher: 250 to 500 nM for the first, 50 to 250 nM for the second.

O=C(COc1ccc(C(F)(F)F)nc1)NC12CC(NC(=O)[C@@H]3CC(=O)c4cc(Cl)ccc4O3)(C1)C2 [Compound 335, (2S)-6-chloro-4-oxo-N-[3-(2-{[6-(trifluoromethyl)pyridin-3-yl]oxy}acetamido)bicyclo[1.1.1]pentan-1-yl]-3,4-dihydro-2H-1-benzopyran-2-carboxamide] and COC1CC(C(=O)NC23CC(NC(=O)COc4ccc(Cl)c(F)c4)(C2)C3)Oc2ccc(F)cc21 (stereo not drawn) [Compound 330, N-{3-[2-(4-chloro-3-fluorophenoxy)acetamido]bicyclo[1.1.1]pentan-1-yl}-6-fluoro-4-methoxy-3,4-dihydro-2H-1-benzopyran-2-carboxamide] fall in the same range of EC50: 50 to 250 nM for the first, 50 to 250 nM for the second.

CN1c2ccc(Cl)cc2CC1C(=O)NC12CC(NC(=O)COc3ccc(Cl)c(F)c3)(C1)C2 (stereo not drawn) [Compound 266, 5-chloro-N-{3-[2-(4-chloro-3-fluorophenoxy)acetamido]bicyclo[1.1.1]pentan-1-yl}-1-methyl-2,3-dihydro-1H-indole-2-carboxamide] was tested, and the EC50 was 50 to 250 nM.
